Assay results reported in patent US20230113398A1, “INEXPENSIVE METAL-FREE ORGANIC REDOX FLOW BATTERY (ORBAT) FOR GRID-SCALE STORAGE” (UNIVERSITY OF SOUTHERN CALIFORNIA, priority 2013, published 2023).
≈ marks a conversion by molar mass, not a printed value. Where “and” joins values, the source holds several entries; their conditions need not be identical. Identical values can stand only once. Like-named read-outs stand apart in the source and are kept apart here.

Experiments:
[1] = Rotating disk electrode and cyclic voltammetry on glassy carbon, 1 mM compound in 1 M sulfuric acid; type: physicochemical; details: for Diffusion Coefficient, (cm^2 s^-1): Levich plot; for Transfer Coefficient, an: Tafel analysis; for Exchange Current Density, (A cm^-2): glassy carbon RDE; for Rate Constant, k°: obtained from exchange current density
Method: Measurement of kinetic parameters and diffusion coefficients was conducted in a three-electrode cell consisting of a rotating glassy carbon disk working electrode, a platinum wire counter electrode, and a mercury/mercuric sulfate reference electrode (E° = +0.65 V). […] The solutions were de-aerated and kept under a blanket of argon gas throughout all the experiments. All measurements were conducted in the potentiodynamic mode (Versastat 300 potentiostat) at a scan rate of 5 mV s^-1 over a range of rotation rates (500 rpm to 3000 rpm). Impedance measurements were also made at each rotation rate. Cyclic voltammetry was conducted on a static glassy carbon electrode at a scan rate of 50 mV s^-1.
(§1) Where n is the number of electrons transferred, F, the Faraday constant, A, electrode area, Do, the diffusion coefficient, v, the kinematic viscosity of the solution and C*, the bulk concentration of the reactants. For n = 2, an active electrode area of 0.1925 cm^2, and a kinematic viscosity of the electrolyte of 0.01 cm^2 s^-1, we were able to evalulate the diffusion coefficient from the slope of the straight line plots in FIG. 11D.
(§2) To determine the kinetic parameters for the charge-transfer process, namely the rate constant and the apparent transfer coeffcient, the logarithm of the kinetic current (after correction for mass-transport losses) was plotted against the observed overpotentials greater than 100 mV, where the Tafel equation is applicable (Eq. 4 and FIG. 11E).
(§3) Where I is the current, Ilim is the limiting current, Iex is the exchange current density, Co and CR are the concentration of the oxidized and reduced species at the surface of the electrode, Co* and CR* are the bulk concentrations of the oxidized and reduced species, α is the transfer coefficient, n is the number of electrons transferred, F is the Faraday constant, E-Erev is the overpotential, R is the gas constant, and T is the temperature. The rate constant, ko , was obtained from the exchange current density (Eq. 5).
as §1, with “plots.” for “plots in FIG. 11D.”
as §2, with “equation derived from the Butler-Volmer Equation” for “equation”, “: […]” for “(Eq. 4 and FIG. 11E).”
as §3, with “using the relationship” for “(Eq. 5).”

[2] = cited from earlier work
[3] = Cyclic voltammetry in 1 M potassium hydroxide; type: physicochemical
[4] = in water, 25° C; cited from earlier work
[5] = Cyclic voltammetry in mixed solvent (DMF/water); type: physicochemical; details: DMF/water (80% DMF/20%Water for TYLENOL)
[6] = Properties of some common quinones (literature data, Conant and Fieser); type: physicochemical
From the text: In a variation as set forth above, the flow battery utilizes a first quinone and a second quinone. Quinones are known to undergo fast electrochemical transformations which are necessary for sustaining high discharge and charge rates in a battery. The facility of electrochemical transformation is characterized by the kinetic parameter termed exchange current density. […] In general, useful quinones are highly soluble in water, chemically stable in strongly acidic/basic solutions, capable of high cell voltage of about 1 V, roundtrip efficiency >80%, and high discharge rate. By selecting a first quinone and a second quinone that are far apart in electrode potential, the cell voltage can be maximized to 1 V. Moreover, the electrode potentials can be modified favorably by substituent groups on the quinones as set forth below. Based on data provided in Table 1 and 2 (J.B. Conant and […]. Am. Chem.

[7] = Table 5, MSE E°=+0.65 V, 1 M sulfuric acid
[8] = Table 7, listed as Anthraquinone sulfonic acid

O=c1[nH][nH]c(=O)c2ccccc12 [Phthalyl hydrazide]
Diffusion Coefficient (cm2/sec) ([1]; Table 7): 1.07E-6 cm2/sec | Exchange Current density (A/cm^2) ([1]; Table 7): 3.03E-6 A/cm^2 | Tafel Slope, mV/decade, dη/d(log I) ([1]; Table 7): 40 mV/decade | E½ vs. MSE, Volt ([1]; Table 7, 1 M sulfuric acid): 0.5 Volt

O=C1C=CC(=O)c2ccccc21 [1,4-naphthaquinone]
Electrode Potential vs. NHE, V [2]: 0.483 V

anthraquinone-2-sulfonic acid salt
reversible peak potential vs. MMO [3]: about -0.4 V

O=C1C=C(S(=O)(=O)O)C=C(S(=O)(=O)O)C1=O [1,2-benzoquinone-3,5-disulfonic acid, 1,2-benzoquinone-3,5-disulfonic acid]
Standard Reduction Potentials: E°(formal) Measured ([1]; 1 M sulfuric acid): 0.87 | kinetic reversibility from cyclic voltammograms ([1]; 1 M sulfuric acid, glassy carbon): rapid oxidation step, but a slower reduction step | Diffusion Coefficient, (cm^2 s^-1) ([1]; Table 5, 1 M sulfuric acid): 3.80E-6 cm^2 s^-1 | E½ vs. MSE, Volt [1, 7]: 0.45 Volt | Transfer Coefficient, an ([1]; Table 5): 0.582 | Exchange Current Density, (A cm^-2) ([1]; Table 5, 1 M sulfuric acid): 3.00E-6 A cm^-2 | Rate Constant, k° ([1]; Table 5): 0.000155 cm/s | Standard Reduction Potentials: Experimental (E½ values) vs. NHE ([1]; 1 M sulfuric acid): 1.1 | solubility (Solubility; Solubility, Table 5): 1000 mM (≈ 268 mg/mL)

Hydroquinone disulfonic acid
Diffusion Coefficient (cm2/sec) ([1]; Table 7): 3.80E-6 cm2/sec and 4.04E-6 cm2/sec | Exchange Current density (A/cm^2) ([1]; Table 7): 3.47E-6 A/cm^2 | Tafel Slope, mV/decade, dη/d(log I) ([1]; Table 7): 123 mV/decade | E½ vs. MSE, Volt ([1]; Table 7, 1 M sulfuric acid): 0.45 Volt | solubility (Solubility; Table 7): 1000 mM

O=C1c2ccccc2C(=O)c2ccccc21 [9,10-anthraquinone, reference compound]
Standard Reduction Potentials: E°(formal) Measured ([1]; 1 M sulfuric acid): Insoluble | Standard Reduction Potentials: Experimental (E½ values) vs. NHE ([1]; 1 M sulfuric acid): Insoluble | Electrode Potential vs. NHE, V [2]: 0.157 V

O=C1C=C(S(=O)(=O)O)C=C(S(=O)(=O)O)C1=O [benzoquinone disulfonic acid]
solubility [4]: 1700 mM (≈ 456 mg/mL)

O=C1C=CC(=O)C=C1 [1,4-benzoquinone (para), 1,4-benzoquinone]
Electrode Potential vs. NHE, V [2]: 0.700 V

O=C1c2ccccc2C(=O)c2c(O)cccc21 [1-hydroxy-9,10-anthraquinone]
Electrode Potential vs. NHE, V [2]: 0.131 V

Maleic hydrazide
Diffusion Coefficient (cm2/sec) ([1]; Table 7): 6.57E-6 cm2/sec | Exchange Current density (A/cm^2) ([1]; Table 7): 5.86E-6 A/cm^2 | Tafel Slope, mV/decade, dη/d(log I) ([1]; Table 7): 54 mV/decade | E½ vs. MSE, Volt ([1]; Table 7, 1 M sulfuric acid): 0.6 Volt

O=C1C=CC(=O)C=C1 [benzoquinone]
solubility [4]: 100 mM (≈ 10.8 mg/mL)

O=C1c2cccc(O)c2C(=O)c2c(O)cccc21 [1,8-dihydroxy anthraquinone, 1,8-dihydroxy anthraquinone]
reversible peak potential vs. MMO [3]: approximately -0.60 V

O=S(=O)(O)c1cc(O)ccc1O [Hydroquinone sulfonic acid]
Standard Reduction Potentials: E°(formal) Measured ([1]; 1 M sulfuric acid): 0.70 | Diffusion Coefficient, (cm^2 s^-1) ([1]; Table 5, 1 M sulfuric acid): 4.28E-6 cm^2 s^-1 | E½ vs. MSE, Volt [1, 7]: 0.17 Volt | Transfer Coefficient, an ([1]; Table 5): 0.418 | Exchange Current Density, (A cm^-2) ([1]; Table 5, 1 M sulfuric acid): 1.10E-5 A cm^-2 | Rate Constant, k° ([1]; Table 5): 0.000552 cm/s | Diffusion Coefficient (cm2/sec) ([1]; Table 7): 4.28E-6 cm2/sec | Exchange Current density (A/cm^2) ([1]; Table 7): 2.59E-5 A/cm^2 | Tafel Slope, mV/decade, dη/d(log I) ([1]; Table 7): 63 mV/decade | E½ vs. MSE, Volt ([1]; Table 7, 1 M sulfuric acid): 0.17 Volt | Standard Reduction Potentials: Experimental (E½ values) vs. NHE ([1]; 1 M sulfuric acid): 0.82 | solubility (Solubility; Solubility, Table 5): 800 mM (≈ 152 mg/mL) | solubility (Solubility; Solubility, Table 7): 800 mM (≈ 152 mg/mL)

O=C1c2ccccc2C(=O)c2c1cccc2S(=O)(=O)O [9,10-anthraquinone-1-sulfonic acid]
Electrode Potential vs. NHE, V [2]: 0.183 V

O=C1C=CC(=O)C(O)=C1 [2-hydroxyl 1,4-benzoquinone]
Electrode Potential vs. NHE, V [2]: 0.596 V

O=C1C=C(S(=O)(=O)O)C(=O)c2ccccc21 [1,4-naphthaquinone-2-sulfonic acid]
Electrode Potential vs. NHE, V [2]: 0.534 V

O=C1c2ccccc2C(=O)c2cc(S(=O)(=O)O)ccc21 [Anthraquinone-2-sulfonic acid, anthraquinone-2-sulfonic acid]
Standard Reduction Potentials: E°(formal) Measured ([1]; 1 M sulfuric acid): 0.15 | Diffusion Coefficient, (cm^2 s^-1) ([1]; Table 5, 1 M sulfuric acid): 3.71E-6 cm^2 s^-1 | E½ vs. MSE, Volt [1, 7]: -0.52 Volt | Transfer Coefficient, an ([1]; Table 5): 0.677 | Exchange Current Density, (A cm^-2) ([1]; Table 5, 1 M sulfuric acid): 1.96E-5 A cm^-2 | Rate Constant, k° ([1]; Table 5): 0.000225 cm/s | Diffusion Coefficient (cm2/sec) ([1]; Table 7): 3.35E-6 cm2/sec | Exchange Current density (A/cm^2) ([1]; Table 7): 1.95E-5 A/cm^2 | E½ vs. MSE, Volt ([1]; Table 7, 1 M sulfuric acid): -0.52 Volt | Diffusion Coefficient (cm2/sec) [1, 8]: 3.18E-6 cm2/sec and 3.35E-6 cm2/sec | Exchange Current density (A/cm^2) [1, 8]: 1.95E-5 A/cm^2 and 2.91E-5 A/cm^2 | Standard Reduction Potentials: Experimental (E½ values) vs. NHE ([1]; 1 M sulfuric acid): 0.13 | reversibility of the electrochemistry [5]: reversible | solubility (Solubility; DMF/water, aqueous with cosolvent or surfactant or cyclodextrin, solubility in DMF/water): 700 mM (≈ 202 mg/mL) | solubility (Solubility; Solubility, Table 5): 200 mM (≈ 57.7 mg/mL) | solubility (Solubility; Solubility, Table 7): 200 mM (≈ 57.7 mg/mL) | solubility (Solubility; water, aqueous solubility limit, aqueous): 200 mM (≈ 57.7 mg/mL)

Oc1ccc(O)cc1 [Hydroquinone]
Standard Reduction Potentials: E°(formal) Measured ([1]; 1 M sulfuric acid): 0.68 | Diffusion Coefficient, (cm^2 s^-1) ([1]; Table 5, 1 M sulfuric acid): 5.03E-6 cm^2 s^-1 | E½ vs. MSE, Volt [1, 7]: 0.02 Volt | Transfer Coefficient, an ([1]; Table 5): 0.508 | Exchange Current Density, (A cm^-2) ([1]; Table 5, 1 M sulfuric acid): 5.09E-5 A cm^-2 | Rate Constant, k° ([1]; Table 5): 0.00236 cm/s | Diffusion Coefficient (cm2/sec) ([1]; Table 7): 5.03E-6 cm2/sec and 5.4E-6 cm2/sec | Exchange Current density (A/cm^2) ([1]; Table 7): 9.17E-5 A/cm^2 | Tafel Slope, mV/decade, dη/d(log I) ([1]; Table 7): 110 mV/decade | E½ vs. MSE, Volt ([1]; Table 7, 1 M sulfuric acid): 0.02 Volt | Standard Reduction Potentials: Experimental (E½ values) vs. NHE ([1]; 1 M sulfuric acid): 0.67 | solubility (Solubility; Solubility, Table 5): 530 mM (≈ 58.4 mg/mL) | solubility (Solubility; Solubility, Table 7): 530 mM (≈ 58.4 mg/mL)

O=C1c2ccc(S(=O)(=O)O)cc2C(=O)c2cc(S(=O)(=O)O)ccc21 [2,7 Anthraquinone disulfonic acid]
Diffusion Coefficient (cm2/sec) ([1]; Table 7): 1.82E-6 cm2/sec | Exchange Current density (A/cm^2) ([1]; Table 7): 7.82E-7 A/cm^2 | E½ vs. MSE, Volt ([1]; Table 7, 1 M sulfuric acid): -0.57 Volt

CC(=O)Nc1ccc(O)cc1 [TYLENOL®, reference compound]
reversibility of the electrochemistry [5]: DMF does not enhance the reversibility

O=C1c2cccc(S(=O)(=O)O)c2C(=O)c2c1cccc2S(=O)(=O)O [1,8 Anthraquinone disulfonic acid]
Diffusion Coefficient (cm2/sec) ([1]; Table 7): 3.39E-6 cm2/sec | Exchange Current density (A/cm^2) ([1]; Table 7): 1.60E-6 A/cm^2 | E½ vs. MSE, Volt ([1]; Table 7, 1 M sulfuric acid): -0.70 Volt

O=C1C=CC=CC1=O [1,2-benzoquinone (ortho), 1,2-benzoquinone]
electrode potential higher relative to 1,4-benzoquinone (para-quinone) [6]: approximately 85 mV | Electrode Potential vs. NHE, V [2]: 0.786 V

O=C1C=C(O)C(=O)c2ccccc21 [2-hydroxy-1,4-naphthaquinone]
Electrode Potential vs. NHE, V [2]: 0.357 V

O=C1C(=O)C(Cl)=C(Cl)C(Cl)=C1Cl [Tetrachloro-1,2-benzoquinone]
Electrode Potential vs. NHE, V [2]: 0.823 V

c1ccc2nccnc2c1 [Quinoxaline]
Diffusion Coefficient (cm2/sec) ([1]; Table 7): 1.36E-6 cm2/sec and 1.09E-6 cm2/sec | solubility (Solubility; Solubility, Table 7): > 7000 mM
